Molecular target: T1, proline utilization A (SmPutA), bifunctional PRODH-GSALDH enzyme (Sinorhizobium meliloti, UniProt F7X6I3)
T1 sequence (F7X6I3 1-1233): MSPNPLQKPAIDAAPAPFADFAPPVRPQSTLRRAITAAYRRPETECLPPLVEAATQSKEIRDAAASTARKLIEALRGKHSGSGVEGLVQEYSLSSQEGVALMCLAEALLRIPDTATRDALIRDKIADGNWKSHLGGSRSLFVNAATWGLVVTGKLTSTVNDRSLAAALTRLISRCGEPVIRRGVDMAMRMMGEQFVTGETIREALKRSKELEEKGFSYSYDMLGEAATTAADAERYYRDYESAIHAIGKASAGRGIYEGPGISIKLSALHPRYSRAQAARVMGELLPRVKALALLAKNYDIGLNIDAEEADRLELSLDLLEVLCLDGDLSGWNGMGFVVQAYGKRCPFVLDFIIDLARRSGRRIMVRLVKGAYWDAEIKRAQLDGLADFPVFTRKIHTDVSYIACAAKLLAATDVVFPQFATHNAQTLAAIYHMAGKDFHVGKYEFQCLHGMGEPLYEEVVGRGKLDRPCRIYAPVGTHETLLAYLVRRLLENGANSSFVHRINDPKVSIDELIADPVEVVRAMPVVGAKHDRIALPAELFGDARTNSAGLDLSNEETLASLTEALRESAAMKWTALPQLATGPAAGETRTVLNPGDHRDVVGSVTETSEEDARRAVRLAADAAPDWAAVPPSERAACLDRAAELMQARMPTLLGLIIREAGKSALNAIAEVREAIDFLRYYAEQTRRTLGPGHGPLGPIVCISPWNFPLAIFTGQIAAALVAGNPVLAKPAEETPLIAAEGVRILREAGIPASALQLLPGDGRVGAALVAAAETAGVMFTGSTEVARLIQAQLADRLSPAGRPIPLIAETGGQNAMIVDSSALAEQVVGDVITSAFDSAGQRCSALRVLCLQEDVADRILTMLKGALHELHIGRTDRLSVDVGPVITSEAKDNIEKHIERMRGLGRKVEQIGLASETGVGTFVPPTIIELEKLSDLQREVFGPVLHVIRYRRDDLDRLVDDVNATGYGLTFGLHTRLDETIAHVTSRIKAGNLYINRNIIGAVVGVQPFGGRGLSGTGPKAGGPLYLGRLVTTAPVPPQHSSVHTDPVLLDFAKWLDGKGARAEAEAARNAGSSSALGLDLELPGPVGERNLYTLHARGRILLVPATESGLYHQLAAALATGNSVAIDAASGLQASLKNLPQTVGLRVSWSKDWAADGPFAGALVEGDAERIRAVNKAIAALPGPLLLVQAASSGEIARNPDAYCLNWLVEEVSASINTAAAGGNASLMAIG
Assay: X-ray crystal structures, noncovalent in the dark
Assay type: biochemical

With O=C(O)C1SCCS1 [compound 4, 1,3-dithiolane-2-carboxylic acid] the IC50 was 22.4 µM.
